Experimental data: the supplement of paper PMC10627819
Converted amounts (≈) assume the structure as drawn.

What was measured:
S. aureus DSM 20231 [1] = test system: S. aureus DSM 20231
S. pneumoniae D39V [2] = test system: S. pneumoniae D39V
S. aureus Newman [3] = test system: S. aureus Newman
S. pneumoniae D39V [4] = assay: fitness (endpoint OD595 vs no drug) (fraction); higher = more growth
How it was run: (§1)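 Fitness was defined as the optical density at the transition into stationary phase relative to the robust mean of no-drug control wells. Values were capped at 1. Cultures were started at OD595 0.01 in 384-well plates (30 µl, or 55 µl for S. pneumoniae) in TSB, LB Lennox or CY at 37 °C. OD595 was recorded every 30 min over 14 h, with the first reading subtracted as background.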

S. aureus Newman [5] = assay: as above
How it was run: as §1

B. subtilis 168 [6] = test system: B. subtilis 168
S. aureus DSM 20231 [7] = assay: fitness (endpoint OD595 vs no drug) (fraction); higher = more growth
How it was run: as §1

B. subtilis 168 [8] = assay: as above
How it was run: as §1

S. aureus DSM 20231 [9] = assay: Bliss interaction score (quartile over a dose matrix) (fitness difference); higher = more antagonism (negative = synergy)
How it was run: (§2)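 Growth in each well was taken as OD595 at entry into stationary phase. Dividing by the plate's robust no-drug mean and capping at 1 gave fitness, and single-drug fitness was inferred from the combination data. The Bliss score, observed minus product-expected fitness, is summarised by quartiles over technical, biological and donor/recipient replicates.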

B. subtilis 168 [10] = assay: as above
How it was run: as §2

S. pneumoniae D39V [11] = assay: as above
How it was run: as §2

S. aureus Newman [12] = assay: as above
How it was run: as §2
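Wherever Bliss interaction score (quartile over a dose matrix) is given: first quartile when negative (synergy) and third quartile when positive (antagonism).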

CC1(C)S[C@@H]2[C@H](NC(=O)Cc3ccccc3)C(=O)N2[C@H]1C(=O)O [Penicillin G]
Conditions | MIC [µg/mL]
S. aureus DSM 20231 [1] | 0.087 (≈ 0.26 µM)
S. aureus Newman [3] | 0.087 (≈ 0.26 µM)
S. pneumoniae D39V [2] | 0.016 (≈ 0.0478 µM)

fitness
Conditions | 0.0018 µg/mL | 0.0035 µg/mL | 0.007 µg/mL | 0.014 µg/mL | 0.0195 µg/mL | 0.039 µg/mL | 0.078 µg/mL
S. aureus Newman [5] | – | – | – | – | 0.928 | 0.892 | 0.886
S. pneumoniae D39V [4] | 0.932 | 0.944 | 0.817 | 0.425 | – | – | –

COc1ccc(C[C@H](N)C(=O)N[C@H]2[C@@H](O)[C@H](n3cnc4c(N(C)C)ncnc43)O[C@@H]2CO)cc1 [Puromycin]
Conditions | MIC [µg/mL]
B. subtilis 168 [6] | 1.56 (≈ 3.31 µM)
S. aureus DSM 20231 [1] | 1.8 (≈ 3.82 µM)
S. aureus Newman [3] | 1.8 (≈ 3.82 µM)
S. pneumoniae D39V [2] | 12.5 (≈ 26.5 µM)

fitness
Conditions | 0.39 µg/mL | 0.78 µg/mL | 1 µg/mL | 1.56 µg/mL | 2 µg/mL | 4 µg/mL
B. subtilis 168 [8] | 0.931 | 0.929 | – | 0.94 | – | –
S. aureus DSM 20231 [7] | ≥ 1 | ≥ 1 | – | ≥ 1 | – | –
S. aureus Newman [5] | 0.985 | 0.993 | – | ≥ 1 | – | –
S. pneumoniae D39V [4] | – | – | ≥ 1 | – | 0.977 | 0.76

COc1ccc(C[C@H](N)C(=O)N[C@H]2[C@@H](O)[C@H](n3cnc4c(N(C)C)ncnc43)O[C@@H]2CO)cc1 [Puromycin] + CN[C@@H]1[C@H](O)[C@H](NC)[C@H]2O[C@@]3(O)C(=O)C[C@@H](C)O[C@H]3O[C@@H]2[C@H]1O [Spectinomycin]
fitness
Conditions | first compound 0.39 µg/mL | first compound 0.78 µg/mL | first compound 1 µg/mL | first compound 1.56 µg/mL | first compound 2 µg/mL | first compound 4 µg/mL
B. subtilis 168 [8], partner 2 µg/mL | 0.951 | 0.94 | – | 0.979 | – | –
B. subtilis 168 [8], partner 4 µg/mL | 0.948 | 0.952 | – | 0.963 | – | –
B. subtilis 168 [8], partner 8 µg/mL | 0.859 | 0.881 | – | 0.848 | – | –
S. aureus DSM 20231 [7], partner 4 µg/mL | 0.959 | 0.943 | – | 0.965 | – | –
S. aureus DSM 20231 [7], partner 8 µg/mL | 0.957 | 0.998 | – | 0.956 | – | –
S. aureus DSM 20231 [7], partner 16 µg/mL | 0.943 | 0.884 | – | 0.888 | – | –
S. aureus Newman [5], partner 4 µg/mL | 0.912 | 0.922 | – | 0.964 | – | –
S. aureus Newman [5], partner 8 µg/mL | 0.962 | 0.95 | – | 0.937 | – | –
S. aureus Newman [5], partner 16 µg/mL | 0.914 | 0.904 | – | 0.873 | – | –
S. pneumoniae D39V [4], partner 4 µg/mL | – | – | 0.931 | – | 0.951 | 0.772
S. pneumoniae D39V [4], partner 8 µg/mL | – | – | 0.877 | – | 0.892 | 0.728

one replicate
Conditions | fitness
S. aureus DSM 20231 [7], first compound 0.39 µg/mL, partner 32 µg/mL | 0.741
S. aureus DSM 20231 [7], first compound 0.39 µg/mL, partner 64 µg/mL | 0.11
S. aureus DSM 20231 [7], first compound 0.78 µg/mL, partner 32 µg/mL | 0.802
S. aureus DSM 20231 [7], first compound 0.78 µg/mL, partner 64 µg/mL | 0.172
S. aureus DSM 20231 [7], first compound 1.56 µg/mL, partner 32 µg/mL | 0.757
S. aureus DSM 20231 [7], first compound 1.56 µg/mL, partner 64 µg/mL | 0.142
S. aureus DSM 20231 [7], first compound 3.12 µg/mL, partner 4 µg/mL | 0.923
S. aureus DSM 20231 [7], first compound 3.12 µg/mL, partner 8 µg/mL | 0.948
S. aureus DSM 20231 [7], first compound 3.12 µg/mL, partner 16 µg/mL | 0.794
S. aureus DSM 20231 [7], first compound 6.24 µg/mL, partner 4 µg/mL | 0.629
S. aureus DSM 20231 [7], first compound 6.24 µg/mL, partner 8 µg/mL | 0.347
S. aureus DSM 20231 [7], first compound 6.24 µg/mL, partner 16 µg/mL | 0.183
S. aureus Newman [5], first compound 0.39 µg/mL, partner 32 µg/mL | 0.664
S. aureus Newman [5], first compound 0.39 µg/mL, partner 64 µg/mL | 0.15
S. aureus Newman [5], first compound 0.78 µg/mL, partner 32 µg/mL | 0.618
S. aureus Newman [5], first compound 0.78 µg/mL, partner 64 µg/mL | 0.0783
S. aureus Newman [5], first compound 1.56 µg/mL, partner 32 µg/mL | 0.569
S. aureus Newman [5], first compound 1.56 µg/mL, partner 64 µg/mL | 0.0656
S. pneumoniae D39V [4], first compound 1 µg/mL, partner 16 µg/mL | 0.867
S. pneumoniae D39V [4], first compound 2 µg/mL, partner 16 µg/mL | 0.863
S. pneumoniae D39V [4], first compound 4 µg/mL, partner 16 µg/mL | 0.613

Conditions | Bliss interaction score
B. subtilis 168 [10] | 0.0392
S. aureus DSM 20231 [9] | 0.0575
S. aureus Newman [12] | 0.0745
S. pneumoniae D39V [11] | 0.0718
